Measurements as given in PubChem BioAssay (NCI).
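Interpolation was linear, between the two tested concentrations surrounding the appropriate level; five concentrations were tested over 48 hours in 96-well plates. TGI marks complete inhibition of growth.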

Assays:
Experiment in all cases: NCI anticancer screen, dose series, 48 h
HOP-62 NSCLC = tested on: HOP-62 NSCLC
UACC-257 melanoma = tested on: UACC-257 melanoma
DU-145 prostate = tested on: DU-145 prostate
NCI-H23 lung = tested on: NCI-H23 lung
SN12C renal = tested on: SN12C renal
SK-MEL-28 melanoma = tested on: SK-MEL-28 melanoma
MALME-3M melanoma = tested on: MALME-3M melanoma
RXF 393 renal = tested on: RXF 393 renal
HCT-116 colon = tested on: HCT-116 colon
HS 578T breast = tested on: HS 578T breast
NCI-H522 lung = tested on: NCI-H522 lung
A549 NSCLC = tested on: A549 NSCLC
SW-620 colon = tested on: SW-620 colon
SNB-75 CNS = tested on: SNB-75 CNS
ACHN renal = tested on: ACHN renal
HCC-2998 colon = tested on: HCC-2998 colon
NCI/ADR-RES ovarian = tested on: NCI/ADR-RES ovarian
CCRF-CEM leukemia = tested on: CCRF-CEM leukemia
EKVX NSCLC = tested on: EKVX NSCLC
RPMI-8226 leukemia = tested on: RPMI-8226 leukemia
SK-MEL-5 melanoma = tested on: SK-MEL-5 melanoma
SF-295 CNS = tested on: SF-295 CNS
BT-549 breast = tested on: BT-549 breast
HOP-92 NSCLC = tested on: HOP-92 NSCLC
NCI-H226 lung = tested on: NCI-H226 lung
MDA-MB-435 = tested on: MDA-MB-435
SF-268 CNS = tested on: SF-268 CNS
OVCAR-8 ovarian = tested on: OVCAR-8 ovarian
T-47D breast = tested on: T-47D breast
U251 CNS = tested on: U251 CNS
K-562 leukemia = tested on: K-562 leukemia
SNB-19 CNS = tested on: SNB-19 CNS
HT29 colon = tested on: HT29 colon
KM12 colon = tested on: KM12 colon
CAKI-1 renal = tested on: CAKI-1 renal
A498 renal = tested on: A498 renal
UACC-62 melanoma = tested on: UACC-62 melanoma
SK-OV-3 ovarian = tested on: SK-OV-3 ovarian
786-0 renal = tested on: 786-0 renal
PC-3 prostate = tested on: PC-3 prostate
IGROV1 ovarian = tested on: IGROV1 ovarian
MCF7 breast = tested on: MCF7 breast
UO-31 renal = tested on: UO-31 renal
LOX IMVI melanoma = tested on: LOX IMVI melanoma
MDA-MB-231 breast = tested on: MDA-MB-231 breast
OVCAR-4 ovarian = tested on: OVCAR-4 ovarian
MDA-N = tested on: MDA-N
M14 melanoma = tested on: M14 melanoma
MOLT-4 leukemia = tested on: MOLT-4 leukemia
SK-MEL-2 melanoma = tested on: SK-MEL-2 melanoma
OVCAR-5 ovarian = tested on: OVCAR-5 ovarian
HL-60(TB) leukemia = tested on: HL-60(TB) leukemia
HCT-15 colon = tested on: HCT-15 colon
TK-10 renal = tested on: TK-10 renal
NCI-H460 lung = tested on: NCI-H460 lung
COLO 205 colon = tested on: COLO 205 colon
OVCAR-3 ovarian = tested on: OVCAR-3 ovarian
SF-539 CNS = tested on: SF-539 CNS
SR leukemia = tested on: SR leukemia

Measured: TGI

O=C(O)CCC(=O)Nc1ccc2ccccc2c1
not listed: SF-539 CNS | SR leukemia
> 100 µM: all other assays above

COC(=O)C1=C(O)C(C(=O)OC)[C@]2(O)[C@H](C(=O)OC)[C@H]1C[C@@H](c1ccc(OC)c(OC)c1)[C@H]2C(=O)OC (stereo partly drawn)
99.4 µM: SK-MEL-2 melanoma
90.7 µM: SK-MEL-28 melanoma
29.6 µM: LOX IMVI melanoma
46.6 µM: SR leukemia
77.3 µM: K-562 leukemia
42.1 µM: NCI-H460 lung
73.3 µM: SNB-19 CNS
36.5 µM: HCT-15 colon
20.7 µM: SF-539 CNS
62.5 µM: OVCAR-3 ovarian
44.2 µM: MDA-MB-435
66.3 µM: COLO 205 colon
46 µM: SNB-75 CNS
54.4 µM: A549 NSCLC
19.1 µM: RPMI-8226 leukemia
94.7 µM: SF-295 CNS
25.3 µM: U251 CNS
48.4 µM: RXF 393 renal
31.1 µM: OVCAR-8 ovarian
68.2 µM: SK-OV-3 ovarian
69.8 µM: MOLT-4 leukemia
93.8 µM: DU-145 prostate
62.9 µM: HL-60(TB) leukemia
54.7 µM: A498 renal
27.1 µM: HCC-2998 colon
83.7 µM: BT-549 breast
29 µM: NCI-H226 lung
54.5 µM: NCI/ADR-RES ovarian | KM12 colon
not listed: MALME-3M melanoma | NCI-H522 lung | SF-268 CNS
> 100 µM: all other assays above
